Measured values from patent US12042523B2, “Compositions and methods for managing or improving bone disorders, joint disorders, cartilage disorders, or a combination thereof” (Unigen, Inc., priority 2014, dated 2024).

Tested on: urine CTX-II (C-telopeptide of type II collagen)
Assay: Urine CTX-II ELISA in MIA-induced OA model
Format: in vivo, rat
Experimental: Treatment started a week before MIA injection. […] On the induction day, isoflurane (Lot #[…] Enterprise Ltd. […], India) anesthetized rats were injected with 0.8 mg of MIA (Lot #A0352046, Acros Organics, New Jersey, USA) in 50 μL saline solution into the intra-articular pocket of left femorotibial (knee) joint using 26 G needle an hour after treatment. Normal control rats were injected with an equal volume of saline. […] Body weights were measured once a week to calculate the respective weekly dosage of each group. The merit of combining UP1306 and UP446 was then evaluated using the Colby's equation (Colby, 1967). Pain sensitivity percent inhibition values were used to determine the calculated efficacy values and compared to the observed percent inhibition values of the composition. CTX-II ELISA was performed according to the kit manufacturer's specifications. […] Rat urine samples were thawed on ice and diluted 1:3 with Sample Diluent. 100 μL of samples and standards were added to a 96-well plate pre-coated with CTX-II antibody. The plate was covered and incubated at 37° C. for 2 hours. The liquid was aspirated from each well, then 100 μL of Detection Reagent A working solution was added to each well. The plate was covered and incubated at 37° C. for 1 hour. The solution was aspirated from each well and the plate was washed three times with 1× Wash Buffer. 100 μL of Detection Reagent B working solution was added to each well, then the plate was covered and incubated at 37° C. for 1 hour. The solution was aspirated from each well and the plate was washed five times with 1× Wash Buffer. 90 μL of Substrate Solution was added to each well, then the plate was covered and incubated at 37° C. for 30 minutes. […] Stop Solution was added to each well, and the optical density at 450 nm was detected using a Tecan Genios plate reader. CTX-II concentrations for each sample were determined by multiplying by the dilution factor and fitting the value to the standard curve. To offset the variations in urine flow between rats, values were normalized to total urine protein.

[1] = MIA-induced OA rats, urine, week 5 of daily oral treatment

Structure (SMILES): O=C(O)Cc1ccccc1Nc1c(Cl)cccc1Cl [Diclofenac]
- Ratio (CTX-II/Protein), uCTX-II normalized to total protein [1]: 64.41
- uCTX-II (Mean ± SD) [1]: 304 ± 233 ng/L
- reduction in urine CTX-II (after 5 weeks of daily oral treatment, diclofenac 10, UP1306+UP446 650, UP1306 400, UP446 250 mg/kg): 31.33%
